Literature values as cited in patent US10463673B2, “Nanoparticulate meloxicam formulations” (Recro Pharma, Inc., priority 2003, dated 2019).
Like-named read-outs stand apart in the source and are kept apart here.

Columns and labels:
[1] = oral; for Cmax, mean (% CV) / tmax, mean (% CV): 15 mg capsules
[2] = Single dose, hepatic insufficiency (Fasted)
[3] = Single dose, renal failure (Fasted)
[4] = Steady state, elderly females (Fed)
[5] = Steady state, elderly males (Fed)

Cmax, mean (% CV) [1, 2]: 0.84 (29) μg/mL
tmax, mean (% CV) [1, 2]: 10 (87) h
Cmax, mean (% CV) [1, 3]: 0.59 (36) μg/mL
tmax, mean (% CV) [1, 3]: 4 (65) h
Cmax, mean (% CV) [1, 4]: 3.2 (24) μg/mL
tmax, mean (% CV) [1, 4]: 6 (27) h
Cmax, mean (% CV) [1, 5]: 2.3 (59) μg/mL
tmax, mean (% CV) [1, 5]: 5 (12) h
time of second meloxicam concentration peak post-dose ([1]; fasted steady state conditions): twelve to fourteen
solubility in methanol (methanol): very slightly soluble
solubility in strong acids and bases (strong acids and bases, compared with water): higher solubility
solubility in water (water): practically insoluble
SMILES: Cc1cnc(NC(=O)C2=C(O)c3ccccc3S(=O)(=O)N2C)s1 [Meloxicam, 4-hydroxy-2-methyl-N-(5-methyl-2-thiazolyl)-2-H-1,2-benzothiazine-3-carboxamide 1,1-dioxide]
COX-2/COX-1 inhibition ratio (COX-2): 0.09
